Values quoted from earlier work, collected in patent publication US5028528A, “Analytical element for theophylline determination using buffer in a subbing zone” (Eastman Kodak Company, priority 1988, dated 1991).

Conditions: in a patient

## Cn1c(=O)c2[nH]cnc2n(C)c1=O [Theophylline]
  therapeutic range of use: 1 to 2 mg/dL
